# Patent US7888357B2, “Anti-inflammatory and protein kinase inhibitor compositions and related methods for downregulation of detrimental cellular responses and inhibition of cell death” (Northwestern University, priority 2001, dated 2011)
# Columns and labels:
# [1] = target: T1, CaMKII (Rattus norvegicus, UniProt P11275); assay: Reconstituted enzyme assay, CaMKII; type: biochemical; conditions: γ-[32P]-ATP, synthetic peptide substrate; mean ± SEM; read-out: IC50 CaMKII
# T1 construct: purchased New England Biolabs
# T1 sequence (P11275 1-325 limits assumed): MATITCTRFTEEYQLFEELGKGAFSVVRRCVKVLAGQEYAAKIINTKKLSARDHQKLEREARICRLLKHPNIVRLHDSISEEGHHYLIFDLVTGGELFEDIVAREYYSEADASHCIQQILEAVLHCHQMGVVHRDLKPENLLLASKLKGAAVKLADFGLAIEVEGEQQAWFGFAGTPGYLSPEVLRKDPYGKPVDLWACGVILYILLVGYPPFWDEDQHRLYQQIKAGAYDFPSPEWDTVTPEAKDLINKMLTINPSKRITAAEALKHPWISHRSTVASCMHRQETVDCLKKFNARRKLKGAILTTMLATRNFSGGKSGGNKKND
# Protocol: (§1) [table] […] The rationale for using BV-2 cells in high throughput screening was the paucity of well-characterized human microglial cell lines, and the relevant activation responses and signaling pathways reflect those seen in human and rodent primary microglial cultures. Compounds were tested for their effects on NO accumulation in conditioned media of LPS-stimulated BV-2 cells by measurement of nitrite production by the Griess assay as a read-out for iNOS activity, as described previously. Stock solutions of compounds were prepared in dimethylsulfoxide (DMSO) or in water. When stock solutions were prepared in DMSO, control wells contained the same final concentration of DMSO as the compound-containing wells. […] Solutions of compounds for cell treatments were diluted to a 10× final concentration by dilution of stock solutions in αMEM media. […] Reconstituted enzyme assays were done as described s. The sources of protein kinases were: bovine heart PKA from Promega, rat brain PKC from Calbiochem, rat CaMKII from New England Biolabs, chicken gizzard MLCK prepared as described, and a p38 MAP kinase kit containing recombinant Xenopus p38-MAPK and its human substrate from Upstate Biotechnology. The catalytic domains of these protein kinases retain a high level of amino acid sequence identity across mammalian species, consistent with the lack of documented major differences across species for the in vitro catalytic activity of a given kinase.
# [2] = target: T2, protein kinase A (PKA) (Bos taurus, UniProt P00517); assay: Reconstituted enzyme assay, PKA; type: biochemical, bovine; conditions: γ-[32P]-ATP, synthetic peptide substrate
# T2 construct: bovine heart PKA from Promega; purchased Promega; host or cells: bovine heart
# Protocol: as §1, with “The catalytic domains of these protein kinases retain a high level of amino acid sequence identity across mammalian species, consistent with the lack of documented major differences across species for the in vitro catalytic activity of a given kinase.” left out
# [3] = test system: rat astrocytes; assay: Western blot of glial activation responses in rat astrocyte cultures; type: cell-based; conditions: for GFAP levels: activated rat astrocytes
# Protocol: FIG. 2. Selective effects of compound 1 (MW01-070C) on glial activation responses and gene-regulating protein kinase pathways. BV-2 cells and rat astrocytes were treated with control buffer (C) or stimulated with LPS or Aβ1-42 peptide in the presence or absence of compound 1, and cell lysates were analyzed by Western blots. (A) Astrocytes treated with LPS and compound 1 show concentration-dependent inhibition of iNOS and IL-1β production but not GFAP. (B) Astrocytes treated with A β1-42 and compound 1 (10 μM) show inhibition of iNOS and IL-1β but not apoE and COX-2. (C) BV-2 cells treated with LPS and compound 1 (10 μM) show inhibition of phosphorylated (p-) CREB but not p-p38 and p-ATF2, as assayed with antibodies that are specific for the phosphorylated forms of the proteins. Data are expressed as percent control (mean±SD; n=3 determinations).
# The rationale for using BV-2 cells in high throughput screening was the paucity of well-characterized human microglial cell lines, and the relevant activation responses and signaling pathways reflect those seen in human and rodent primary microglial cultures. Compounds were tested for their effects on NO accumulation in conditioned media of LPS-stimulated BV-2 cells by measurement of nitrite production by the Griess assay as a read-out for iNOS activity, as described previously. Stock solutions of compounds were prepared in dimethylsulfoxide (DMSO) or in water. When stock solutions were prepared in DMSO, control wells contained the same final concentration of DMSO as the compound-containing wells. […] Solutions of compounds for cell treatments were diluted to a 10× final concentration by dilution of stock solutions in αMEM media. The commercially available drugs tested were: compound 5 (KN93 from Alexis); compound 6 (pyrrolidinedithiocarbamate or PDTC from Sigma), compound 7 (SB203580 from Alexis Corporation), compound 8 (PD98059 from Alexis Corporation), and compound 9 (UO126 from Cell Signaling). SB203580, U0126 and PD98059, PDTC, and KN93 are used as pathway-selective inhibitors of p38 MAPK, MEK1/2, NFκB, and CaMKII signaling pathways. Respectively, Western blots of cell lysates were done with the following antibodies: monoclonal anti-iNOS (1:1000 dilution, Transduction Labs); polyclonal anti-rat IL-1β (1:1000 dilution, R&D Systems, Inc.); monoclonal anti-glial fibrillary acidic protein (GFAP) (1:[…] dilution, Sigma); polyclonal anti-rat alioE (1:15,000 dilution) prepared as described; polyclonal anti-COX-2 (1:500 dilution) and monoclonal anti-phosphoATF2 (1:1000 dilution) from Santa Cruz Biotechnology, polyclonal anti-phosphoCREB (1:1000 dilution), and polyclonal anti-phosphop38 MAPK (1:1000 dilution). Reconstituted enzyme assays were done as described s. The sources of protein kinases were: bovine heart PKA from Promega, rat brain PKC from Calbiochem, rat CaMKII from New England Biolabs, chicken gizzard MLCK prepared as described, and a p38 MAP kinase kit containing recombinant Xenopus p38-MAPK and its human substrate from Upstate Biotechnology. The catalytic domains of these protein kinases retain a high level of amino acid sequence identity across mammalian species, consistent with the lack of documented major differences across species for the in vitro catalytic activity of a given kinase.
# FIG. 5. Effects of two compounds on LPS-stimulated INOS and IL-1β production in rat astrocyte cultures. Astrocyte cultures were incubated for 24 hr with control buffer (C), LPS (100 ng/ml) alone, or LPS in the presence of increasing concentrations (0.1, 0.3, 1, 3, 10 μM) of MW01-070C (panel A) or MW01-196A (panel B). The levels of iNOS, proIL-1β, and GFAP were determined by Western blot of cell lysates.
# FIG. 6. Effects of MW01-070C on astrocytes treated with various activating stimuli, and analysis of multiple activation responses. Astrocyte cultures were stimulated for 12 hr with Aβ (10 μM), S100B (0.5 μM), or LPS (100 ng/ml) in the absence (−) or presence (+) of MW01-070C (10 μM). […]
# [4] = LPS-stimulated rat astrocytes, 24 hr, Western blot
# [5] = LPS-stimulated rat astrocytes, 24 hr, Western blot, listed as 1
# [6] = activated astrocytes, compound 10 μM
# [7] = astrocytes stimulated by S100 (0.5 μM), 12 hr, compound 10 μM
# [8] = glia stimulated by Aβ1-42, compound 10 μM
smiles,measurement,setting,value
N=c1cc2c(nn1CCCCCCCCCCC(=O)N1CCN(c3ncccn3)CC1)-c1ccccc1CC2 [MW01-070C],IC50,[1],9.7 ± 1.9 µM
same,IC50,[2],> 100 µM
same,IL-1β production,[3]; [4],dose dependent inhibition
same,iNOS production,[3]; [4],dose dependent inhibition
same,IL-1β production,[3]; [5],inhibits
same,iNOS production,[3]; [5],inhibits
same,COX-2 levels,[3]; [6],no effect
same,apoE production,[3]; [6],no effect
same,GFAP levels,[3]; Western blot,no change
same,GFAP levels,"[3]; Western blot, listed as 1",not changed
same,IL-1β production,[3]; [7],inhibits
same,iNOS production,[3]; [7],inhibits
same,IL-1β production,[3]; [8],inhibits
same,iNOS production,[3]; [8],inhibits
